Assay results taken from patent US20250204247A1, “DISPLAY APPARATUS AND ELECTRONIC DEVICE” (SEMICONDUCTOR ENERGY LABORATORY CO., LTD., priority 2022, published 2025).

Experiment: Solubility test in water (visual inspection for an insoluble residue)
Type: physicochemical
Conditions: for solubility in water relative to the solubility of hpp2Py in water: fraction of the hpp2Py solubility in water
Protocol: In a sample bottle (capacity: 20 mL) was put 1.16 mg of 1,1′-(9,9′-spirobi[9H-fluorene]-2,7-diyl)bis(1,3,4,6,7,8-hexahydro-2H-pyrimido[1,2-a]pyrimidine) (abbreviation: 2,7hpp2SF), and 0.5 mL of water was added thereto. This mixture was irradiated with ultrasonic waves for one minute. A precipitated white powder was found by visual inspection for an insoluble residue. After further addition of 0.5 mL of water and one-minute ultrasonic wave irradiation, a precipitated white powder was found by visual inspection. This procedure was repeatedly executed until the dissolution was confirmed by visual inspection.
The precipitated white powder was found until the total amount of water reached 3.0 mL. After further addition of 0.5 mL of water and ultrasonic wave irradiation, no precipitated white powder was found.
In a sample bottle (capacity: 100 mL) was put 1.08 mg of 1-(9,9′-spirobi[9H-fluorene]-2-yl)-1,3,4,6,7,8-hexahydro-2H-pyrimido[1,2-a]pyrimidine) (abbreviation: 2hppSF), and 50 mL of water was added thereto. A precipitated white powder was found by visual inspection for an insoluble residue. When 10 mL of water was further added, the precipitated white powder was not observed by visual inspection.
In a sample bottle (capacity: 5 mL) was put 50.2 mg of 1,1′-pyridine-2,6-diyl-bis(1,3,4,6,7,8-hexahydro-2H-pyrimido[1,2-a]pyrimidine) (abbreviation: hpp2Py), and 1.0 mL of water was added thereto. The dissolution was found by visual inspection for an insoluble residue.

solubility in water relative to the solubility of hpp2Py in water | weight which can be dissolved in 1.0 mL of water (per 1.0 mL of water, dissolution confirmed by visual inspection) | SMILES
less than or equal to 1/10 |  | c1ccc2c(c1)-c1ccccc1C21c2cc(N3CCCN4CCCN=C43)ccc2-c2ccc(N3CCCN4CCCN=C43)cc21 [2,7hpp2SF, 1,1′-(9,9′-spirobi[9H-fluoren]-2,7-diyl)bis(1,3,4,6,7,8-hexahydro-2H-pyrimido[1,2-a]pyrimidine)]
less than or equal to 1/10 |  | c1ccc2c(c1)-c1ccccc1C21c2ccccc2-c2ccc(N3CCCN4CCCN=C43)cc21 [2hppSF, 1-(9,9′-spirobi[9H-fluoren]-2-yl)-1,3,4,6,7,8-hexahydro-2H-pyrimido[1,2-a]pyrimidine]
 | greater than or equal to 50.2 mg | c1cc(N2CCCN3CCCN=C32)nc(N2CCCN3CCCN=C32)c1 [hpp2Py, 1,1′-pyridine-2,6-diyl-bis(1,3,4,6,7,8-hexahydro-2H-pyrimido[1,2-a]pyrimidine), reference compound]
